# Laboratory results published in ChEMBL document CHEMBL1681705, “Optimisation of ITK inhibitors through successive iterative design cycles” (Bioorg Med Chem Lett, 2011).
# What was measured:
# [1] = biological target: Proto-oncogene tyrosine-protein kinase Src (Homo sapiens) (UniProt P12931); assay: Inhibition of c-SRC at 1 uM; values are per cent of control
# [2] = biological target: T1, Tyrosine-protein kinase JAK3 (Homo sapiens) (UniProt P52333); assay: Inhibition of JAK3 at 0.1 uM; values are per cent of control
# T1 sequence (whole entry): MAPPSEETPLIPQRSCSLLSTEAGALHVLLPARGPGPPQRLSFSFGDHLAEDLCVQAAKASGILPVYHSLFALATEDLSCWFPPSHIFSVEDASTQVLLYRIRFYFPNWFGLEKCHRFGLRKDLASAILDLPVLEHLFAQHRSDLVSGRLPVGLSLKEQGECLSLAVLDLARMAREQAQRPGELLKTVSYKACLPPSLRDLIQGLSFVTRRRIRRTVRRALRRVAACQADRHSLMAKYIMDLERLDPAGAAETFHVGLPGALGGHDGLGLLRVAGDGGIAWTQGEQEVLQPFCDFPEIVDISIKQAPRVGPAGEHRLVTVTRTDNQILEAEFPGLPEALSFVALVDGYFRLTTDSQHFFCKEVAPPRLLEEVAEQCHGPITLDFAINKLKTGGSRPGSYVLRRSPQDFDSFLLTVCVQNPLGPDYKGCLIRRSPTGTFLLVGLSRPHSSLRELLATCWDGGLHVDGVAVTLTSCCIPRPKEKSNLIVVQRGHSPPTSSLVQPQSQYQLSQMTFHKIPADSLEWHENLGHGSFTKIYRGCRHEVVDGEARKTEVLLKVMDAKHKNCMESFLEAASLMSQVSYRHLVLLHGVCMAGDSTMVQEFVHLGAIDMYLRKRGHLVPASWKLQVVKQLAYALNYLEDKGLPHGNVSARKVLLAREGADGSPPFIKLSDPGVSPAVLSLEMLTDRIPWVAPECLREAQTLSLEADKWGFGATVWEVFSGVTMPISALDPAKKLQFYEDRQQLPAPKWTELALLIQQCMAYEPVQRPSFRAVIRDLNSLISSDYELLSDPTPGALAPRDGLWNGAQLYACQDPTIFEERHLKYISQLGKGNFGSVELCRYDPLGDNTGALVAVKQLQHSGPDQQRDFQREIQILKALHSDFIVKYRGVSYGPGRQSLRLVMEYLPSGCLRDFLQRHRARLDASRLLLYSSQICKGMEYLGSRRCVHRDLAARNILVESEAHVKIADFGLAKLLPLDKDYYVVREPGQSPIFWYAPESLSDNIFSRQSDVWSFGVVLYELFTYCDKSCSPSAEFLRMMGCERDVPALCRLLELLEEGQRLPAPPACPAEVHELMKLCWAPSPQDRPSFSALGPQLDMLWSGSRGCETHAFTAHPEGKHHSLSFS
# [3] = biological target: Tyrosine-protein kinase CSK (Homo sapiens) (UniProt P41240); assay: Inhibition of CSK at 0.1 uM; values are per cent of control
# Chain of Tyrosine-protein kinase CSK (Homo sapiens) (P41240 2-450 limits assumed): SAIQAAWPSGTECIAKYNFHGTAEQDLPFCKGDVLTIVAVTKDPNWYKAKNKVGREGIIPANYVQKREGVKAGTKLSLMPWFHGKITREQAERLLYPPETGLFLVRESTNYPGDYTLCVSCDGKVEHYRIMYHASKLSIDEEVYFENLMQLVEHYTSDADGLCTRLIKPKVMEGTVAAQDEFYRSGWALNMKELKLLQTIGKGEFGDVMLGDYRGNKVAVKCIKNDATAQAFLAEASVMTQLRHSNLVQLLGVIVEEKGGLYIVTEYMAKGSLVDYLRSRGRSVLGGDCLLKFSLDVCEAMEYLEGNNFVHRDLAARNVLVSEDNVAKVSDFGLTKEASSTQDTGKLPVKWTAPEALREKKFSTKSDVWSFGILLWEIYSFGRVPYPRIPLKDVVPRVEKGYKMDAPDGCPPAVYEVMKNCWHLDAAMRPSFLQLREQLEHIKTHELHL
# [4] = biological target: T2, Calcium/calmodulin-dependent protein kinase type IV (Homo sapiens) (UniProt Q16566); assay: Inhibition of CaMK4 at 1 uM; values are per cent of control
# T2 sequence (whole entry): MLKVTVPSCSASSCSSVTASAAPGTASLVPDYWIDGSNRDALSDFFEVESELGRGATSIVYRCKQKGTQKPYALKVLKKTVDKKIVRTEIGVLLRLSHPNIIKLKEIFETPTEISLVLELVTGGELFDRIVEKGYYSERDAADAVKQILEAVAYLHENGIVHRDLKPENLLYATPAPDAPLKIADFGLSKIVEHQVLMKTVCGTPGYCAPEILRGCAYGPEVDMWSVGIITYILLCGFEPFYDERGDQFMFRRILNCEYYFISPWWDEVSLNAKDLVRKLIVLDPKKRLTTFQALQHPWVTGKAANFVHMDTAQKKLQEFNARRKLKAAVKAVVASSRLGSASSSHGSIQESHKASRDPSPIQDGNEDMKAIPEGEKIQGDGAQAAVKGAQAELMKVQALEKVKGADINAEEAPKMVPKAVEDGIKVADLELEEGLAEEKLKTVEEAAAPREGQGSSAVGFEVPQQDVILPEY
# [5] = biological target: Protein-tyrosine kinase 2-beta (Homo sapiens) (UniProt Q14289); assay: Inhibition of Pyk2 at 0.1 uM; values are per cent of control
# Chain of Protein-tyrosine kinase 2-beta (Homo sapiens) (Q14289 whole entry, looked up): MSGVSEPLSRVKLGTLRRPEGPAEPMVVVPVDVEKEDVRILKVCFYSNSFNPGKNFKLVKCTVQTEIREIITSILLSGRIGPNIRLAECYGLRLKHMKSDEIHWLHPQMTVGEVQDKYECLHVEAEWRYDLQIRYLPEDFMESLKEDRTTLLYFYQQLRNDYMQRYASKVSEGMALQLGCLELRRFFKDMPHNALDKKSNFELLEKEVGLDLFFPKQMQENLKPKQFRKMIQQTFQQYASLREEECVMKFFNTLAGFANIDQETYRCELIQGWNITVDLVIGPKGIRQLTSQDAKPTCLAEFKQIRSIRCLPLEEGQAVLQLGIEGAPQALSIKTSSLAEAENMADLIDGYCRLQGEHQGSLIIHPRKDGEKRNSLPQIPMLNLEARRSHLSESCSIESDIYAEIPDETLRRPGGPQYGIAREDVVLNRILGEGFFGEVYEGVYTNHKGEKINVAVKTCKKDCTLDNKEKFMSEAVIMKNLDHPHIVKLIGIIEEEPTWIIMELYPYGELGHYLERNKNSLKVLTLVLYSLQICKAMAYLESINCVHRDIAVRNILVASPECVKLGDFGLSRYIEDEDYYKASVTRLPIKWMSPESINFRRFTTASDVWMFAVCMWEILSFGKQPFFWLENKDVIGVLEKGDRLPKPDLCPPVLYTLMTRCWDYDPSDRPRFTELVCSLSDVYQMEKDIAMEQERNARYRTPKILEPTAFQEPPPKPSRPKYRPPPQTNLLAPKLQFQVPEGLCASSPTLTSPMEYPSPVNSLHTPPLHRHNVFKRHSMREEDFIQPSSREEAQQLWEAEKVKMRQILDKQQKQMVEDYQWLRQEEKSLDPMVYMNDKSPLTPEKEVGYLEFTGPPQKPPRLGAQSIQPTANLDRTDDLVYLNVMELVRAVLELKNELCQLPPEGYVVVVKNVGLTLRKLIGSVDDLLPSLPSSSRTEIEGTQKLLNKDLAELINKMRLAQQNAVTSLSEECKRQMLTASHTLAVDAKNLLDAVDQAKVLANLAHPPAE
# [6] = biological target: Tyrosine-protein kinase Yes (Homo sapiens) (UniProt P07947); assay: Inhibition of Yes at 1 uM; values are per cent of control
# Chain of Tyrosine-protein kinase Yes (Homo sapiens) (P07947 2-543 limits assumed): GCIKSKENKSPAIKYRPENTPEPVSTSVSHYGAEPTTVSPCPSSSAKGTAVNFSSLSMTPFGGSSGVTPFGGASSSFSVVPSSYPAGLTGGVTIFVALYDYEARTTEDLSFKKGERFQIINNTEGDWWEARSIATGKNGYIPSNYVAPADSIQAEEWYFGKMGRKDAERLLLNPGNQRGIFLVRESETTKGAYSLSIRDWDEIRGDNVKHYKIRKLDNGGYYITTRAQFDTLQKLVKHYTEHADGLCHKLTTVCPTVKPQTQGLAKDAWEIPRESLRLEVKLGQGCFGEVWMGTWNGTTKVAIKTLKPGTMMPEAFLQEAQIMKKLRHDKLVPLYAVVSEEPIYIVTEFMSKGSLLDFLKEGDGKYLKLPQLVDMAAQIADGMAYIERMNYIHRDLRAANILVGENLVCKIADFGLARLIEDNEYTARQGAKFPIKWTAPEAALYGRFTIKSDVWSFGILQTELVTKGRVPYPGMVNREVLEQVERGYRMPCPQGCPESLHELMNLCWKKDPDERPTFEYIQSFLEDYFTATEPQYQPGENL
# [7] = biological target: T3, Ephrin type-B receptor 2 (Homo sapiens) (UniProt P29323); assay: Inhibition of EphB2 at 0.1 uM; values are per cent of control
# T3 sequence (whole entry): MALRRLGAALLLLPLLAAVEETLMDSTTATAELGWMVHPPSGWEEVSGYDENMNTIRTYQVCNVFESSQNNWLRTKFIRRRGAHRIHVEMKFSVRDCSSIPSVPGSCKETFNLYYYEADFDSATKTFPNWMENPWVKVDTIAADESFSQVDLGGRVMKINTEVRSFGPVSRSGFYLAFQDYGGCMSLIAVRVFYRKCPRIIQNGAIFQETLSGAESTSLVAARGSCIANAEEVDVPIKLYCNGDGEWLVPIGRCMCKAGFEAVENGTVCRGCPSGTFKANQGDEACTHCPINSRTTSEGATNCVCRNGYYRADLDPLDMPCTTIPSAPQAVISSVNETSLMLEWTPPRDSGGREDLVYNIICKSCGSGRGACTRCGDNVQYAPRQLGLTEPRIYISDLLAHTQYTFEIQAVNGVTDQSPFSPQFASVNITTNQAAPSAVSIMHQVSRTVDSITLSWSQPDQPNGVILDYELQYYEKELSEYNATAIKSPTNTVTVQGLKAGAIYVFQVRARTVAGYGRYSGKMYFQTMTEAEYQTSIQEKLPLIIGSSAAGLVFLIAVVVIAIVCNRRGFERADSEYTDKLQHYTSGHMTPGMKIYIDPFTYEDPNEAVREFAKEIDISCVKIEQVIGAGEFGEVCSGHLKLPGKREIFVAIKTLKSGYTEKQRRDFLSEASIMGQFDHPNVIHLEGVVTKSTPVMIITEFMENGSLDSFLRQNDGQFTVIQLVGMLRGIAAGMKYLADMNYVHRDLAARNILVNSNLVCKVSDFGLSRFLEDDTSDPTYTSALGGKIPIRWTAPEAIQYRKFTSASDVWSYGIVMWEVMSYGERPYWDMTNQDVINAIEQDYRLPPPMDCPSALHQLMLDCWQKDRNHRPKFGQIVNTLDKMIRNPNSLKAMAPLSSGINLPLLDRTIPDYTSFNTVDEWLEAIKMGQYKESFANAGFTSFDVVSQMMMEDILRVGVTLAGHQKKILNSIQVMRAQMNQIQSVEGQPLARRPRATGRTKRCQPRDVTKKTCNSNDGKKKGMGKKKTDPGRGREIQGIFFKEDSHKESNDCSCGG
# Chain of Proto-oncogene tyrosine-protein kinase Src (Homo sapiens) (P12931 2-536 limits assumed): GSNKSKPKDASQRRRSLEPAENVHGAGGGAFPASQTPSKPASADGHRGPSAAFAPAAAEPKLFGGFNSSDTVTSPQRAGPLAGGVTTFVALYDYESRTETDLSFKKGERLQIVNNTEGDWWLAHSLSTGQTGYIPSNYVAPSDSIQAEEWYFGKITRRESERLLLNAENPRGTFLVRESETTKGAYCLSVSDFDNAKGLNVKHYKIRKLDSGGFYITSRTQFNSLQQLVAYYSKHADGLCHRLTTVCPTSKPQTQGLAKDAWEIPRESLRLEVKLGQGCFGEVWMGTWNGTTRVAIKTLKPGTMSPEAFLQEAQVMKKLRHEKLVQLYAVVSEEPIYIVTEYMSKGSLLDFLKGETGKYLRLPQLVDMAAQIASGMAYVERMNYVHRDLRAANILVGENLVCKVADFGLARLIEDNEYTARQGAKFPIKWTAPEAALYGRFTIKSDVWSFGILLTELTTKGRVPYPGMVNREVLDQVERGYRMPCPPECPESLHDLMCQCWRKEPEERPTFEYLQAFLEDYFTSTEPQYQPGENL
residual activity [1],residual activity [2],residual activity [3],residual activity [4],residual activity [5],residual activity [6],residual activity [7],Compound
1%,52%,105%,115%,66%,-3%,99%,Cc1ccc2cc(-c3n[nH]c4ccc(NC5CCN(Cc6ccccc6)CC5)cc34)[nH]c2c1
5%,25%,107%,28%,71%,0%,87%,Cc1ccc2cc(-c3n[nH]c4ccc(NC5CCNC5)cc34)[nH]c2c1 (centres undefined)
